This experiment deals with HDM2 protein (Homo sapiens, UniProt Q00987). The experiment can be described thus: fluorescence polarization screening assay (FP IC50). The experiment is classed as binding. As to conditions: class symbols. As for the experimental part:
The compounds were evaluated to determine activity at the HDM2 protein by known methods such as the fluorescence polarization screening assay that measures the inhibitory concentration that achieves 50% of maximal activity (FP IC50) and the dissociation constant for inhibitor binding (FP Ki). [Zhang et al., J. Analytical Biochemistry 331: 138-146 (2004)].
(In general: Fluorescence polarisation rises when a labelled molecule tumbles more slowly, as on binding a larger partner.)

For orientation: IC50 means the concentration needed to halve the response being measured.

Sequence of HDM2 protein (Q00987 whole entry): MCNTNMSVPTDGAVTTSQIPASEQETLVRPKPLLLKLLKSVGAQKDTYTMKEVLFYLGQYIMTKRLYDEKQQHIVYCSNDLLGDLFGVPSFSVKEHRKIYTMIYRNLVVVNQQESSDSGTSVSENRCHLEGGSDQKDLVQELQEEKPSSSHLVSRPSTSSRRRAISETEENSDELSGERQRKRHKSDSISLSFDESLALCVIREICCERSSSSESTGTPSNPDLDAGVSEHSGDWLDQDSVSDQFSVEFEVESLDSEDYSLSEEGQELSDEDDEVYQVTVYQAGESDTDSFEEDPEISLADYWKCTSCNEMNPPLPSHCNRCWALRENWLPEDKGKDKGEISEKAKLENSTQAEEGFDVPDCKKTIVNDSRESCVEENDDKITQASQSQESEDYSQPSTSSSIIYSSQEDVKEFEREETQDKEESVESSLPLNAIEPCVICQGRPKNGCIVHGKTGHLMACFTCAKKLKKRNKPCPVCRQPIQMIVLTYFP

Compound `CCC[C@H]1N(C(=O)c2ncccc2C(F)(F)F)CCC[C@@]1(Oc1csc(C(F)(F)F)c1)C(=O)N1CCc2cc(F)ccc2C1CCC(=O)NCc1nn[nH]n1` (stereo partly drawn) [Compound A59, 3-(6-fluoro-2-{[(2R,3S)-2-propyl-1-{[3-(trifluoromethyl)pyridin-2-yl]carbonyl}-3-{[5-(trifluoromethyl)thiophen-3-yl]oxy}piperidin-3-yl]carbonyl}-1,2,3,4-tetrahydroisoquinolin-1-yl)-N-(2H-tetrazol-5-ylmethyl)propanamide] returned a half-maximal inhibitory concentration (IC50) of 1 to 100 nM.

For the compound `CCC[C@H]1N(C(=O)c2ncccc2C(F)(F)F)CCC[C@@]1(Oc1csc(C(F)(F)F)c1)C(=O)N1CCc2cc(F)ccc2C1CCC(=O)NCc1nn[nH]n1` (stereo partly drawn) [Compound A60, 3-(6-fluoro-2-{[(2R,3S)-2-propyl-1-{[3-(trifluoromethyl)pyridin-2-yl]carbonyl}-3-{[5-(trifluoromethyl)thiophen-3-yl]oxy}piperidin-3-yl]carbonyl}-1,2,3,4-tetrahydroisoquinolin-1-yl)-N-(2H-tetrazol-5-ylmethyl)propanamide], the IC50 was in the range of 1 to 100 nM.

In turn, `CCC[C@H]1N(C(=O)c2ncccc2C(F)(F)F)CCC[C@@]1(Oc1csc(C(F)(F)F)c1)C(=O)N1CCc2cc(Cl)ccc2C1CCC(=O)NS(C)(=O)=O` (stereo partly drawn) [Compound A61, 3-(6-chloro-2-{[(2R,3S)-2-propyl-1-{[3-(trifluoromethyl)pyridin-2-yl]carbonyl}-3-{[5-(trifluoromethyl)thiophen-3-yl]oxy}piperidin-3-yl]carbonyl}-1,2,3,4-tetrahydroisoquinolin-1-yl)-N-(methylsulfonyl) propanamide] showed an IC50 of 1 to 100 nM.

For the compound `CCC[C@H]1N(C(=O)c2ncccc2C(F)(F)F)CCC[C@@]1(Oc1csc(C(F)(F)F)c1)C(=O)N1CCc2cc(-c3ccccc3)ccc2C1` [Compound A62, 6-phenyl-2-{[(2R,3S)-2-propyl-1-{[3-(trifluoromethyl)pyridin-2-yl]carbonyl}-3-{[5-(trifluoromethyl)thiophen-3-yl]oxy}piperidin-3-yl]carbonyl}-1,2,3,4-tetrahydroisoquinoline], the IC50 fell in the range of 101 to 20000 nM.

Take `CCC[C@H]1N(C(=O)c2ncccc2C(F)(F)F)CCC[C@@]1(Oc1csc(C(F)(F)F)c1)C(=O)N1CCc2cc(Cl)ccc2C1CCC(=O)NS(C)(=O)=O` (stereo partly drawn) [Compound A63, 3-(6-chloro-2-{[(2R,3S)-2-propyl-1-{[3-(trifluoromethyl)pyridin-2-yl]carbonyl}-3-{[5-(trifluoromethyl)thiophen-3-yl]oxy}piperidin-3-yl]carbonyl}-1,2,3,4-tetrahydroisoquinolin-1-yl)-N-(methylsulfonyl) propanamide]: the concentration for half-maximal inhibition (IC50) fell in the range of 1 to 100 nM.

`CCC[C@H]1N(C(=O)c2ncccc2C(F)(F)F)CCC[C@@]1(Oc1csc(C(F)(F)F)c1)C(=O)N1CCc2cc(Cl)ccc2C1CC(C)(C)C(=O)O` (stereo partly drawn) [Compound A64, 3-(6-chloro-2-{[(2R,3S)-2-propyl-1-{[3-(trifluoromethyl)pyridin-2-yl]carbonyl}-3-{[5-(trifluoromethyl)thiophen-3-yl]oxy}piperidin-3-yl]carbonyl}-1,2,3,4-tetrahydroisoquinolin-1-yl)-2,2-dimethylpropanoic acid]: the concentration for half-maximal inhibition (IC50) is 1 to 100 nM.

In turn, `CCC[C@H]1N(C(=O)c2ncccc2C(F)(F)F)CCC[C@@]1(Oc1csc(C(F)(F)F)c1)C(=O)N1CCc2cc(Cl)ccc2C1CC(C)(C)C(=O)O` (stereo partly drawn) [Compound A65, 3-(6-chloro-2-{[(2R,3S)-2-propyl-1-{[3-(trifluoromethyl)pyridin-2-yl]carbonyl}-3-{[5-(trifluoromethyl)thiophen-3-yl]oxy}piperidin-3-yl]carbonyl}-1,2,3,4-tetrahydroisoquinolin-1-yl)-2,2-dimethylpropanoic acid] returned a half-maximal inhibitory concentration (IC50) of 1 to 100 nM.

On to `CCC[C@H]1N(C(=O)c2ncccc2C(F)(F)F)CCC[C@@]1(Oc1csc(C(F)(F)F)c1)C(=O)N1CCc2cc(-c3ccsc3)ccc2C1` [Compound A66, 2-{[(2R,3S)-2-propyl-1-{[3-(trifluoromethyl)pyridin-2-yl]carbonyl}-3-{[5-(trifluoromethyl)thiophen-3-yl]oxy}piperidin-3-yl]carbonyl}-6-thiophen-3-yl-1,2,3,4-tetrahydroisoquinoline], for which the half-inhibitory concentration (IC50) is 101 to 20000 nM.

In turn, `CCC[C@H]1N(C(=O)c2ncccc2C(F)(F)F)CCC[C@@]1(Oc1csc(C(F)(F)F)c1)C(=O)N1CCc2cc(Cl)ccc2C1CCC(=O)NCc1nn[nH]n1` (stereo partly drawn) [Compound A67, 3-(6-chloro-2-{[(2R,3S)-2-propyl-1-{[3-(trifluoromethyl)pyridin-2-yl]carbonyl}-3-{[5-(trifluoromethyl)thiophen-3-yl]oxy}piperidin-3-yl]carbonyl}-1,2,3,4-tetrahydroisoquinolin-1-yl)-N-(2H-tetrazol-5-ylmethyl)propanamide] registered a half-maximal inhibitory concentration (IC50) of 1 to 100 nM.

For `CCC[C@H]1N(C(=O)c2ncccc2C(F)(F)F)CCC[C@@]1(Oc1csc(C(F)(F)F)c1)C(=O)N1CCc2cc(Br)ccc2C1CC(=O)O` (stereo partly drawn) [Compound A70, (6-bromo-2-{[(2R,3S)-2-propyl-1-{[3-(trifluoromethyl)pyridin-2-yl]carbonyl}-3-{[5-(trifluoromethyl)thiophen-3-yl]oxy}piperidin-3-yl]carbonyl}-1,2,3,4-tetrahydroisoquinolin-1-yl)acetic acid], the half-maximal inhibitory concentration (IC50) lay in the range of 1 to 100 nM.

With `CCC[C@H]1N(C(=O)c2ncccc2C(F)(F)F)CCC[C@@]1(Oc1csc(C(F)(F)F)c1)C(=O)N1CCc2cc(Cl)ccc2C1CC(C)(C)C#N` (stereo partly drawn) [Compound A71, 3-(6-chloro-2-{[(2R,3S)-2-propyl-1-{[3-(trifluoromethyl)pyridin-2-yl]carbonyl}-3-{[5-(trifluoromethyl)thiophen-3-yl]oxy}piperidin-3-yl]carbonyl}-1,2,3,4-tetrahydroisoquinolin-1-yl)-2,2-dimethylpropanenitrile], the half-inhibitory concentration (IC50) is 101 to 20000 nM.

For the compound `CCC[C@H]1N(C(=O)c2ncccc2C(F)(F)F)CCC[C@@]1(Oc1csc(C(F)(F)F)c1)C(=O)N1CCc2cc(Br)ccc2C1CC(=O)O` (stereo partly drawn) [Compound A72, (6-bromo-2-{[(2R,3S)-2-propyl-1-{[3-(trifluoromethyl)pyridin-2-yl]carbonyl}-3-{[5-(trifluoromethyl)thiophen-3-yl]oxy}piperidin-3-yl]carbonyl}-1,2,3,4-tetrahydroisoquinolin-1-yl)acetic acid], the half-inhibitory concentration (IC50) was 1 to 100 nM.

Regarding `CCC[C@H]1N(C(=O)c2ncccc2C(F)(F)F)CCC[C@@]1(Oc1csc(C(F)(F)F)c1)C(=O)N1CCc2cc(Cl)ccc2C1CCCC(=O)O` (stereo partly drawn) [Compound A73, 4-(6-chloro-2-{[(2R,3S)-2-propyl-1-{[3-(trifluoromethyl)pyridin-2-yl]carbonyl}-3-{[5-(trifluoromethyl)thiophen-3-yl]oxy}piperidin-3-yl]carbonyl}-1,2,3,4-tetrahydroisoquinolin-1-yl)butanoic acid], the 50% inhibitory concentration (IC50) is 1 to 100 nM.

`CCC[C@H]1N(C(=O)c2ncccc2C(F)(F)F)CCC[C@@]1(Oc1csc(C(F)(F)F)c1)C(=O)N1CCc2cc(Cl)ccc2C1CCCC(=O)O` (stereo partly drawn) [Compound A74, 4-(6-chloro-2-{[(2R,3S)-2-propyl-1-{[3-(trifluoromethyl)pyridin-2-yl]carbonyl}-3-{[5-(trifluoromethyl)thiophen-3-yl]oxy}piperidin-3-yl]carbonyl}-1,2,3,4-tetrahydroisoquinolin-1-yl)butanoic acid] came in with an IC50 of 1 to 100 nM.

These data come from patent publication US9062071B2, “Substituted piperidines as HDM2 inhibitors” (Merck Sharp & Dohme Corp, priority 2011, dated 2015).
